Measured values as given in ChEMBL document CHEMBL1201862, “PubChem BioAssay data set” (2004).
“And” between values parts separate entries of the source, which are not always exact repeats. Identical values can stand only once.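 Where inhibition never reached the appropriate level, the endpoint shown equals the highest concentration tested. Otherwise, values were interpolated linearly from a five-concentration, 48-hour dose response in 96-well plates. GI50 = concentration required for 50% inhibition of growth.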 The source made the active and inactive calls. Cut-off read from the data, not from the text of the source: active = GI50 up to about 1.1 µM and inactive = higher.

What was measured:
Experiment in all cases: growth of human tumour cells (NCI), 48 h
SNB-75 = tested on: SNB-75
MDA-N = tested on: MDA-N
NCI-H460 = tested on: NCI-H460
SF-295 = tested on: SF-295
A498 = tested on: A498
SK-MEL-2 = tested on: SK-MEL-2
IGROV-1 = tested on: IGROV-1
KM12 = tested on: KM12
HOP-62 = tested on: HOP-62
OVCAR-3 = tested on: OVCAR-3
LOX IMVI = tested on: LOX IMVI
M14 = tested on: M14
K562 = tested on: K562
UO-31 = tested on: UO-31
Hs-578T = tested on: Hs-578T
U-251 = tested on: U-251
PC-3 = tested on: PC-3
BT-549 = tested on: BT-549
MDA-MB-231 = tested on: MDA-MB-231
NCI-H23 = tested on: NCI-H23
MOLT-4 = tested on: MOLT-4
SK-MEL-5 = tested on: SK-MEL-5
NCI/ADR-RES = tested on: NCI/ADR-RES
SN12C = tested on: SN12C
HCC 2998 = tested on: HCC 2998
NCI-H522 = tested on: NCI-H522
T47D = tested on: T47D
HT-29 = tested on: HT-29
UACC-257 = tested on: UACC-257
SR = tested on: SR
DU-145 = tested on: DU-145
UACC-62 = tested on: UACC-62
COLO 205 = tested on: COLO 205
MCF7 = tested on: MCF7
OVCAR-5 = tested on: OVCAR-5
786-0 = tested on: 786-0
MDA-MB-435 = tested on: MDA-MB-435
EKVX = tested on: EKVX
RXF 393 = tested on: RXF 393
OVCAR-4 = tested on: OVCAR-4
CAKI-1 = tested on: CAKI-1
OVCAR-8 = tested on: OVCAR-8
ACHN = tested on: ACHN
HCT-15 = tested on: HCT-15
HOP-92 = tested on: HOP-92
HCT-116 = tested on: HCT-116
SNB-19 = tested on: SNB-19
RPMI-8226 = tested on: RPMI-8226
NCI-H226 = tested on: NCI-H226
TK-10 = tested on: TK-10
A549 = tested on: A549
SF-268 = tested on: SF-268
Malme-3M = tested on: Malme-3M
HL-60 = tested on: HL-60
SW-620 = tested on: SW-620
SK-OV-3 = tested on: SK-OV-3
SK-MEL-28 = tested on: SK-MEL-28

Structure (SMILES): CC1=NN(c2cccc(Cl)c2)C2(C1)C(Cl)C(=O)N2c1nc2ccccc2s1 (configuration not stated)
- GI50 (SNB-75): 21.6 µM (inactive)
- GI50 (MDA-N): 29.2 µM (inactive)
- GI50 (NCI-H460): 36.6 µM (inactive)
- GI50 (SF-295): 31.2 µM (inactive)
- GI50 (A498): 35.9 µM (inactive)
- GI50 (SK-MEL-2): 17.1 µM (inactive)
- GI50 (IGROV-1): 21.8 µM (inactive)
- GI50 (KM12): 22.3 µM (inactive)
- GI50 (HOP-62): 25.5 µM (inactive)
- GI50 (OVCAR-3): 20.5 µM (inactive)
- GI50 (LOX IMVI): 18.7 µM (inactive)
- GI50 (M14): 22.5 µM (inactive)
- GI50 (K562): 16.2 µM (inactive)
- GI50 (UO-31): 19.3 µM (inactive)
- GI50 (Hs-578T): 45.2 µM (inactive)
- GI50 (U-251): 23.9 µM (inactive)
- GI50 (PC-3): 22.6 µM (inactive)
- GI50 (BT-549): 27.8 µM (inactive)
- GI50 (MDA-MB-231): 21.5 µM (inactive)
- GI50 (NCI-H23): 19.7 µM (inactive)
- GI50 (MOLT-4): 14.5 µM (inactive)
- GI50 (SK-MEL-5): 19.4 µM (inactive)
- GI50 (NCI/ADR-RES): 25.4 µM (inactive)
- GI50 (SN12C): 22.8 µM (inactive)
- GI50 (HCC 2998): 55.1 µM (inactive)
- GI50 (NCI-H522): 21.8 µM (inactive)
- GI50 (T47D): 26.2 µM (inactive)
- GI50 (HT-29): 33.6 µM (inactive)
- GI50 (UACC-257): 42.1 µM (inactive)
- GI50 (SR): 15.2 µM (inactive)
- GI50 (DU-145): 37.1 µM (inactive)
- GI50 (UACC-62): 31.1 µM (inactive)
- GI50 (COLO 205): 18 µM (inactive)
- GI50 (MCF7): 32.1 µM (inactive)
- GI50 (OVCAR-5): 44.4 µM (inactive)
- GI50 (786-0): 21.1 µM (inactive)
- GI50 (MDA-MB-435): 25.6 µM (inactive)
- GI50 (EKVX): 45.5 µM (inactive)
- GI50 (RXF 393): 27.9 µM (inactive)
- GI50 (OVCAR-4): 34.7 µM (inactive)
- GI50 (CAKI-1): 33.1 µM (inactive)
- GI50 (OVCAR-8): 32.5 µM (inactive)
- GI50 (ACHN): 32.7 µM (inactive)
- GI50 (HCT-15): 28.8 µM
- GI50 (HOP-92): 25.3 µM (inactive)
- GI50 (HCT-116): 19.2 µM (inactive)
- GI50 (SNB-19): 28.6 µM (inactive)
- GI50 (RPMI-8226): 17.3 µM (inactive)
- GI50 (NCI-H226): 14.2 µM (inactive)
- GI50 (TK-10): 90.2 µM (inactive)
- GI50 (A549): 25.6 µM (inactive)
- GI50 (SF-268): 33.2 µM (inactive)
- GI50 (Malme-3M): 30.5 µM (inactive)
- GI50 (HL-60): 23.3 µM (inactive)
- GI50 (SW-620): 33.2 µM (inactive)
- GI50 (SK-OV-3): 28 µM (inactive)

Structure (SMILES): COc1ccc(-n2c(C)nc3ccc(NC4OCC(O)C(O)C4O)cc3c2=O)cc1 (configuration not stated)
- GI50 (SNB-75): > 100 µM (inactive)
- GI50 (MDA-N): 61.9 µM (inactive) and 62.4 µM (inactive)
- GI50 (NCI-H460): 72.9 µM (inactive) and 40.5 µM (inactive)
- GI50 (SF-295): > 100 µM (inactive)
- GI50 (A498): > 100 µM (inactive)
- GI50 (SK-MEL-2): > 100 µM (inactive)
- GI50 (IGROV-1): > 100 µM (inactive) and 55.1 µM (inactive)
- GI50 (HOP-62): > 100 µM (inactive)
- GI50 (OVCAR-3): > 100 µM (inactive)
- GI50 (LOX IMVI): 18.8 µM (inactive) and 22.5 µM (inactive)
- GI50 (K562): 31.3 µM (inactive) and 30.8 µM (inactive)
- GI50 (UO-31): > 100 µM (inactive)
- GI50 (Hs-578T): 51.8 µM (inactive) and 41.8 µM (inactive)
- GI50 (U-251): 60 µM (inactive) and 49.2 µM (inactive)
- GI50 (PC-3): > 100 µM (inactive)
- GI50 (BT-549): 74.5 µM (inactive)
- GI50 (MDA-MB-231): > 100 µM (inactive)
- GI50 (NCI-H23): 56.6 µM (inactive) and 38.3 µM (inactive)
- GI50 (MOLT-4): 22.3 µM (inactive) and 31.5 µM (inactive)
- GI50 (SK-MEL-5): > 100 µM (inactive)
- GI50 (NCI/ADR-RES): 53.7 µM (inactive) and 83.6 µM (inactive)
- GI50 (SN12C): 38.1 µM (inactive) and 27.2 µM (inactive)
- GI50 (HCC 2998): > 100 µM (inactive)
- GI50 (SK-MEL-28): 21.8 µM (inactive) and 32.1 µM (inactive)
- GI50 (NCI-H522): 24.6 µM (inactive) and 22.3 µM (inactive)
- GI50 (T47D): > 100 µM (inactive)
- GI50 (HT-29): 24 µM (inactive) and 25.6 µM (inactive)
- GI50 (UACC-257): > 100 µM (inactive)
- GI50 (SR): 31.1 µM (inactive) and 26.1 µM (inactive)
- GI50 (DU-145): > 100 µM (inactive)
- GI50 (UACC-62): 39.4 µM (inactive) and 31.9 µM (inactive)
- GI50 (COLO 205): 42.6 µM (inactive) and 83 µM (inactive)
- GI50 (MCF7): 43.5 µM (inactive) and 48.4 µM (inactive)
- GI50 (OVCAR-5): > 100 µM (inactive)
- GI50 (786-0): 34 µM (inactive) and 30.5 µM (inactive)
- GI50 (MDA-MB-435): > 100 µM (inactive) and 82.8 µM (inactive)
- GI50 (EKVX): > 100 µM (inactive)
- GI50 (RXF 393): 22.7 µM (inactive) and 30.1 µM (inactive)
- GI50 (OVCAR-4): > 100 µM (inactive)
- GI50 (OVCAR-8): 23.3 µM (inactive) and 28.6 µM (inactive)
- GI50 (ACHN): 61.4 µM (inactive) and 36.6 µM (inactive)
- GI50 (HCT-15): 26.6 µM and 31.6 µM
- GI50 (HCT-116): 18.6 µM (inactive) and 19.4 µM (inactive)
- GI50 (SNB-19): > 100 µM (inactive)
- GI50 (RPMI-8226): 26.5 µM (inactive) and 20 µM (inactive)
- GI50 (NCI-H226): 37.3 µM (inactive) and 37.6 µM (inactive)
- GI50 (TK-10): > 100 µM (inactive)
- GI50 (SF-268): > 100 µM (inactive)
- GI50 (Malme-3M): 57.7 µM (inactive) and 99.3 µM (inactive)
- GI50 (HL-60): 26.4 µM (inactive) and 28.9 µM (inactive)
- GI50 (SW-620): 27.1 µM (inactive) and 36.5 µM (inactive)
